# Target: T1, pY705-STAT3 in PBMC (Homo sapiens, UniProt P40763)
# T1 construct: Cryopreserved Peripheral Blood Mononuclear Cells (PBMC) are from AllCells; host or cells: cryopreserved PBMC
# Assay: MSD-pSTAT-PBMC Assay (pSTAT3, IL-6 stimulated)
# Type: cell-based
# Details: PBMC, compound 3 hrs, then 10 ng/mL IL-6 for 10 min; Table 115; read-out: STAT3
# Method in brief: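 pY705-STAT3 was detected electrochemiluminescently on total-STAT3 capture plates, using lysates of human PBMCs given compound for 3 h and then IL-6 (10 ng/mL, 10 min). Values were background-subtracted against unstimulated wells and set relative to DMSO. IC50 was fitted with variable slope.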
# T1 sequence (P40763 whole entry): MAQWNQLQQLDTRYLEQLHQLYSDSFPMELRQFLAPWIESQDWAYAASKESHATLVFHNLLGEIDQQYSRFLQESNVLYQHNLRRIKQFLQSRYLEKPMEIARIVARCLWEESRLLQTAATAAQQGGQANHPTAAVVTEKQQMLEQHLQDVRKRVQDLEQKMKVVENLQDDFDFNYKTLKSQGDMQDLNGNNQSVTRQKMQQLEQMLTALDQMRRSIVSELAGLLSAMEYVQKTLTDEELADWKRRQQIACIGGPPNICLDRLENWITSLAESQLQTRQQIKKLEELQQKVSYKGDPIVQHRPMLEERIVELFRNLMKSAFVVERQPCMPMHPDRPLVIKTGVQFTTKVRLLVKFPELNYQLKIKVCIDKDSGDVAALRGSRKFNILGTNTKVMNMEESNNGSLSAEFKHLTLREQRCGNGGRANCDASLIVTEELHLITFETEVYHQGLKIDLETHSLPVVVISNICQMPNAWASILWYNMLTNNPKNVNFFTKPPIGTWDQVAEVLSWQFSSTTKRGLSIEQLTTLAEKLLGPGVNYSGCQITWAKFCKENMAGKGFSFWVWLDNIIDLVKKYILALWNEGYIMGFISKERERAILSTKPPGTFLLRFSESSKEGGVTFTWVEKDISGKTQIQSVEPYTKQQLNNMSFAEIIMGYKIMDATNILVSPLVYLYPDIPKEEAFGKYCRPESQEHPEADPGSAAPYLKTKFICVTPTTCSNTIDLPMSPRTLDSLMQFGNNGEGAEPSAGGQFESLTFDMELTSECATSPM
row,SMILES,IC50 [nM]
1,"CCCOC(=O)[C@H](C)NP(=O)(Cc1ccc2sc(C(=O)N[C@H]3CCC[C@H]4CC[C@@H](C(=O)N5CC(c6cccnc6)C5)N4C3=O)cc2c1)N1CCCC1=O (stereo partly drawn) [Compound 433, propyl (((2-(((3S,6S,9aS)-5-oxo-3-(3-(pyridin-3-yl)azetidine-1-carbonyl)octahydro-1H-pyrrolo[1,2-a]azepin-6-yl)carbamoyl)benzo [b]thiophen-5-yl)methyl)(2-oxopyrrolidin-1-yl)phosphoryl)-L-alaninate]",1000 to 3000
2,"CCCOC(=O)C1(NP(=O)(Cc2ccc3sc(C(=O)N[C@H]4CCC[C@H]5CC[C@@H](C(=O)N6CC(c7cccnc7)C6)N5C4=O)cc3c2)Oc2ccccc2)CC1 (stereo partly drawn) [Compound 434, propyl 1-((((2-(((3S,6S,9aS)-5-oxo-3-(3-(pyridin-3-yl)azetidine-1-carbonyl)octahydro-1H-pyrrolo[1,2-a]azepin-6-yl)carbamoyl)benzo [b]thiophen-5-yl)methyl)(phenoxy)phosphoryl)amino) cyclopropane-1-carboxylate]",100 to 1000
3,"CCCOC(=O)[C@H](C)NP(=O)(Oc1ccccc1)C(C)c1ccc2sc(C(=O)N[C@H]3CCC[C@H]4CC[C@@H](C(=O)N5CC(c6cccnc6)C5)N4C3=O)cc2c1 (stereo partly drawn) [Compound 435, propyl ((1-(2-(((3S,6S,9aS)-5-oxo-3-(3-(pyridin-3-yl)azetidine-1-carbonyl)octahydro-1H-pyrrolo[1,2-a]azepin-6-yl)carbamoyl)benzo [b]thiophen-5-yl)ethyl)(phenoxy)phosphoryl)-L-alaninate]",100 to 1000
4,"CCCOC(=O)[C@H](C)NP(=O)(Cc1ccc2sc(C(=O)N[C@H]3CCC[C@H]4CC[C@@H](C(=O)N5CC(c6cccnc6)C5)N4C3=O)cc2c1)OCC(C)(F)F (stereo partly drawn) [Compound 437, propyl ((2,2-difluoropropoxy)((2-(((3S,6S,9aS)-5-oxo-3-(3-(pyridin-3-yl)azetidine-1-carbonyl)octahydro-1H-pyrrolo[1,2-a]azepin-6-yl)carbamoyl)benzo [b]thiophen-5-yl)methyl)phosphoryl)-L-alaninate]",100 to 1000
5,"CCCOC(=O)[C@H](C)NP(=O)(Cc1ccc2sc(C(=O)N[C@H]3CCC[C@H]4CC[C@@H](C(=O)N5CC(c6cccnc6)C5)N4C3=O)cc2c1)OCCOC (stereo partly drawn) [Compound 438, propyl ((2-methoxyethoxy)((2-(((3S,6S,9aS)-5-oxo-3-(3-(pyridin-3-yl)azetidine-1-carbonyl)octahydro-1H-pyrrolo[1,2-a]azepin-6-yl)carbamoyl)benzo [b]thiophen-5-yl)methyl)phosphoryl)-L-alaninate]",1000 to 3000
6,"CCCOC(=O)[C@H](C)NP(=O)(Cc1ccc2sc(C(=O)N[C@H]3CCC[C@H]4CC[C@@H](C(=O)N5CC(c6cccnc6)C5)N4C3=O)cc2c1)OCC (stereo partly drawn) [Compound 439, propyl (ethoxy((2-(((3S,6S,9aS)-5-oxo-3-(3-(pyridin-3-yl)azetidine-1-carbonyl)octahydro-1H-pyrrolo[1,2-a]azepin-6-yl)carbamoyl)benzo [b]thiophen-5-yl)methyl)phosphoryl)-L-alaninate]",100 to 1000
7,CCCOC(=O)[C@H](C)N[P@@](=O)(Oc1ccccc1)[C@@H](F)c1ccc2sc(C(=O)N[C@H]3CCC[C@H]4CC[C@@H](C(=O)N5CC(c6cccnc6)C5)N4C3=O)cc2c1 [Compound 447],< 100
8,CCCOC(=O)[C@H](C)N[P@@](=O)(Oc1ccccc1)[C@H](F)c1ccc2sc(C(=O)N[C@H]3CCC[C@H]4CC[C@@H](C(=O)N5CC(c6cccnc6)C5)N4C3=O)cc2c1 [Compound 464],< 100
9,"CCCOC(=O)[C@H](C)NP(=O)(Oc1ccccc1)[C@H](F)c1ccc2sc(C(=O)N[C@H]3CCC[C@H]4CC[C@@H](C(=O)N5CC(c6cnccc6OCC)C5)N4C3=O)cc2c1 (stereo partly drawn) [Compound 484, propyl (((S)-(2-(((3S,6S,9aS)-3-(3-(4-ethoxypyridin-3-yl)azetidine-1-carbonyl)-5-oxooctahydro-1H-pyrrolo[1,2-a]azepin-6-yl)carbamoyl)benzo [b]thiophen-5-yl)fluoromethyl) (phenoxy)phosphoryl)-L-alaninate]",< 100
10,"CCCOC(=O)[C@H](C)NP(=O)(Oc1ccccc1)[C@@H](F)c1ccc2sc(C(=O)N[C@H]3CC[C@@H](CC)C[C@H]4CC[C@@H](C(=O)N5CC(c6cnccc6N6CCC6)C5)N4C3=O)cc2c1 (stereo partly drawn) [Compound 493, propyl (((R)-(2-(((3S,6S,9R,10aR)-3-(3-(4-(azetidin-1-yl)pyridin-3-yl)azetidine-1-carbonyl)-9-ethyl-5-oxodecahydropyrrolo [1,2-a]azocin-6-yl)carbamoyl)benzo [b]thiophen-5-yl)fluoromethyl) (phenoxy)phosphoryl)-L-alaninate]",< 100
11,"CCCOC(=O)[C@H](C)NP(=O)(Oc1ccccc1)[C@@H](F)c1ccc2sc(C(=O)N[C@H]3CCC[C@H]4CC[C@@H](C(=O)N5CC(c6cnccc6OCC)C5)N4C3=O)cc2c1 (stereo partly drawn) [Compound 494, propyl (((R)-(2-(((3S,6S,9aS)-3-(3-(4-ethoxypyridin-3-yl)azetidine-1-carbonyl)-5-oxooctahydro-1H-pyrrolo[1,2-a]azepin-6-yl)carbamoyl)benzo [b]thiophen-5-yl)fluoromethyl) (phenoxy)phosphoryl)-L-alaninate]",< 100
12,"CCOC(=O)[C@H](CC)NP(=O)(Cc1ccc2sc(C(=O)N[C@H]3CCC[C@H]4CC[C@@H](C(=O)N5CC(c6cccnc6)C5)N4C3=O)cc2c1)Oc1ccccc1 (stereo partly drawn) [Compound 944, ethyl (2S)-2-((((2-(((3S,6S,9aS)-5-oxo-3-(3-(pyridin-3-yl)azetidine-1-carbonyl)octahydro-1H-pyrrolo[1,2-a]azepin-6-yl)carbamoyl)benzo [b]thiophen-5-yl)methyl)(phenoxy)phosphoryl)amino) butanoate]",100 to 1000
13,"COC[C@H](NP(=O)(Cc1ccc2sc(C(=O)N[C@H]3CCC[C@H]4CC[C@@H](C(=O)N5CC(c6cccnc6)C5)N4C3=O)cc2c1)Oc1ccccc1)C(=O)OCC(C)C (stereo partly drawn) [Compound 945, isobutyl O-methyl-N-(((2-(((3S,6S,9aS)-5-oxo-3-(3-(pyridin-3-yl)azetidine-1-carbonyl)octahydro-1H-pyrrolo[1,2-a]azepin-6-yl)carbamoyl)benzo [b]thiophen-5-yl)methyl)(phenoxy)phosphoryl)-L-serinate]",100 to 1000
14,"COC[C@H](NP(=O)(Cc1ccc2sc(C(=O)N[C@H]3CCC[C@H]4CC[C@@H](C(=O)N5CC(c6cccnc6)C5)N4C3=O)cc2c1)Oc1ccccc1)C(=O)OCc1ccccc1 (stereo partly drawn) [Compound 946, benzyl O-methyl-N-(((2-(((3S,6S,9aS)-5-oxo-3-(3-(pyridin-3-yl)azetidine-1-carbonyl)octahydro-1H-pyrrolo[1,2-a]azepin-6-yl)carbamoyl)benzo [b]thiophen-5-yl)methyl)(phenoxy)phosphoryl)-L-serinate]",100 to 1000
15,"CC[C@H](NP(=O)(Cc1ccc2sc(C(=O)N[C@H]3CCC[C@H]4CC[C@@H](C(=O)N5CC(c6cccnc6)C5)N4C3=O)cc2c1)Oc1ccccc1)C(=O)OCC(C)C (stereo partly drawn) [Compound 947, isobutyl (2S)-2-((((2-(((3S,6S,9aS)-5-oxo-3-(3-(pyridin-3-yl)azetidine-1-carbonyl)octahydro-1H-pyrrolo[1,2-a]azepin-6-yl)carbamoyl)benzo [b]thiophen-5-yl)methyl)(phenoxy)phosphoryl)amino) butanoate]",< 100
16,"CC(C)COC(=O)[C@@H](NP(=O)(Cc1ccc2sc(C(=O)N[C@H]3CCC[C@H]4CC[C@@H](C(=O)N5CC(c6cccnc6)C5)N4C3=O)cc2c1)Oc1ccccc1)C(C)C (stereo partly drawn) [Compound 948, isobutyl (((2-(((3S,6S,9aS)-5-oxo-3-(3-(pyridin-3-yl)azetidine-1-carbonyl)octahydro-1H-pyrrolo[1,2-a]azepin-6-yl)carbamoyl)benzo [b]thiophen-5-yl)methyl) (phenoxy)phosphoryl)-L-valinate]",1000 to 3000
17,"CCOC(=O)[C@@H](NP(=O)(Cc1ccc2sc(C(=O)N[C@H]3CCC[C@H]4CC[C@@H](C(=O)N5CC(c6cccnc6)C5)N4C3=O)cc2c1)Oc1ccccc1)C(C)C (stereo partly drawn) [Compound 949, ethyl (((2-(((3S,6S,9aS)-5-oxo-3-(3-(pyridin-3-yl)azetidine-1-carbonyl)octahydro-1H-pyrrolo[1,2-a]azepin-6-yl)carbamoyl)benzo [b]thiophen-5-yl)methyl) (phenoxy)phosphoryl)-L-valinate]",1000 to 3000
18,"CCCOC(=O)[C@H](C)NP(=O)(Oc1ccccc1)C(F)c1ccc2sc(C(=O)N[C@H]3CCCC[C@H]4CC[C@@H](C(=O)N5CC(OCC(F)F)(c6cccnc6)C5)N4C3=O)cc2c1 (stereo partly drawn) [Compound 950, propyl (((2-(((3S,6S,10aS)-3-(3-(2,2-difluoroethoxy)-3-(pyridin-3-yl)azetidine-1-carbonyl)-5-oxodeca-hydropyrrolo [1,2-a]azocin-6-yl)carbamoyl)benzo [b]thiophen-5-yl)fluoromethyl) (phenoxy)phosphoryl)-L-alaninate]",< 100
19,"CCCOC(=O)[C@H](C)NP(=O)(Cc1ccc2sc(C(=O)N[C@H]3CCC[C@H]4CC[C@@H](C(=O)N5CC(c6cnccc6C)C5)N4C3=O)cc2c1)Oc1ccccc1 (stereo partly drawn) [Compound 951, propyl (((2-(((3S,6S,9aS)-3-(3-(4-methylpyridin-3-yl)azetidine-1-carbonyl)-5-oxooctahydro-1H-pyrrolo[1,2-a]azepin-6-yl)carbamoyl)benzo [b]thiophen-5-yl)methyl) (phenoxy)phosphoryl)-L-alaninate]",< 100

# Same assay, conditions: STAT3, PBMC, compound 3 hrs, then 10 ng/mL IL-6 for 10 min; Table 115
row,SMILES,IC50 [nM]
1,"CCCOC(=O)C(C)(C)NP(=O)(Cc1ccc2sc(C(=O)N[C@H]3CCC[C@H]4CC[C@@H](C(=O)N5CC(c6cccnc6)C5)N4C3=O)cc2c1)Oc1ccccc1 (stereo partly drawn) [Compound 445, propyl 2-methyl-2-((((2-(((3S,6S,9aS)-5-oxo-3-(3-(pyridin-3-yl)azetidine-1-carbonyl)octahydro-1H-pyrrolo[1,2-a]azepin-6-yl)carbamoyl)benzo [b]thiophen-5-yl)methyl)(phenoxy)phosphoryl)amino) propanoate]",< 100

# — patent US20250215029A1 (Recludix Pharma, Inc., priority 2022, published 2025)
